Results as given in US20060088545A1, “Use of inhibitors of the protease of the human immunodeficiency virus (hiv) to block cell migration and/or invasion, tissue infiltration and oedema for the therary of diseases associated therewith” (priority 2001, published 2006).

What was measured:
casein-degrading MMPs = experiment: Casein zymography of supernatants from HUVEC treated with bFGF or TPA; format: cell-based, human; conditions: 10 μM; 8 or 24 hours
Experimental: FIG. 11. Saquinavir blocks the production of casein-degrading MMPs by endothelial cells. […] Aliquots of cell supernatants normalised to total cell number were then analysed for MMP activity by gel zymography as described above in gels containing casein (2 mg/ml) instead of gelatin.). Panel A: casein zymography performed with cell supernatants harvested after 8 hours of culture in the presence of TPA or bFGF; Panel B: casein zymography performed with cell supernatants harvested after 24 hours of culture in the presence of TPA or bFGF. Casein is specifically cleaved by stromelysins (MMP-3, MMP-10, MMP-11) and matrilysin (MMP-7) (Whittaker and Ayscough, 2001) This led to the appearance of destained areas due to caseinolytic activity present in cell supernatants.

[1] = tested on: lung carcinoma cells (A549); experiment: Cell growth assay of A549 cells; format: cell-based, human; conditions: 10 μM; 4 days
Experimental: Shown is the result of a representative cell growth assay performed on the lung carcinoma cells. Human lung carcinoma cells (A549; ATCC) were plated in triplicate (8×10^4 cells/well) in 12-well plates. […] Ensoli et al., 1994b): For all the in vitro studies HIV-PI as endotoxin-free pure powder (a kind gift of Merck Sharp & Dohme and Roche) were resuspended in distilled water. Assays were repeated at least three times.

[2] = tested on: vascular permeability and oedema induced by KS cells; experiment: Vascular permeability and oedema induced by KS cells in nude mice (Evans blue); format: in vivo
Experimental: As a control, each animal was inoculated controlaterally with the same volume of diluting buffer and Matrigel. After 18 hours the animals were sacrificed and the quantity of staining decanted in the inoculation site of the KS cells was measured at the level of the two largest perpendicular diameters by means of a gauge. The quantity of staining decanted was also assessed after taking skin from the inoculation site and quantified with the spectrophotometer after extraction with formamide for 24 hours at 56° C. […] The quantity of staining decanted was calculated after subtraction of the optical density measured on the control site.
After 12 hours the animals were sacrificed, the stained area present on the site of inoculation of the KS cells was measured with a caliper and the extravasated dye was extracted from tissues with formamide and measured by spectrophotometry (Nakamura, Science 1992).

MMP-2 = experiment: Gelatin zymography of supernatants from TPA-stimulated HUVEC; format: cell-based, human; conditions: TPA 50 nM; 8 hours; 10 μM
Experimental: HUVEC were cultivated for 24 hours in RPMI 1640 with the addition of 10% FBS. […] Aliquots of cell supernatants were then assayed for MMP-2 activity by gel zymography as described above. HT1080 is a tumour cell line secreting large amount of MMP-2 that was used as a control. […] The amount of supernatant analysed was normalised to the total cell number.

## CC(C)(C)NC(=O)[C@@H]1C[C@@H]2CCCC[C@@H]2CN1C[C@@H](O)[C@H](Cc1ccccc1)NC(=O)[C@H](CC(N)=O)NC(=O)c1ccc2ccccc2n1 [Saquinavir, saquinavir]
casein-degrading MMPs
  release of casein-degradation activity induced by bFGF or TPA: inhibited
[1]
  proliferation: do not interfere
[2]
  reduction of the stained area (measurement with a gauge/caliper): 47.5%
[2]; formamide extraction
  reduction of the amount of extravasated dye (spectrophotometer): 44.5%

## CC(C)(C)NC(=O)[C@@H]1CN(Cc2cccnc2)CCN1C[C@@H](O)C[C@@H](Cc1ccccc1)C(=O)N[C@H]1c2ccccc2C[C@H]1O [Indinavir, indinavir]
MMP-2
  total amount of MMP-2 released by cells in the presence of TPA: inhibited
[1]
  proliferation: do not interfere
